Patent publication US5496824A, “Cyclopropane derivatives and anti-viral agent containing the same” (Ajinomoto Co., Inc., priority 1993, dated 1996)
Converted amounts (≈) assume the structure as drawn.

How the values were obtained:
Type in all cases: cell-based
HSV-1 (Tomioka strain) = experiment: Anti-viral activity against herpes simplex virus, neutral red dye-uptake method in Vero cells; settings: Human alphaherpesvirus 1, 72 h, 3 days at 37° C., read-out: ID50 (the source's name)
Experimental: (§1) The anti-viral activity of the prepared compounds against herpes simplex virus was measured by neutral red dye-uptake method (J. Infect. Dis. 148: 868 (1983)) with modification. Precisely, threefold dilutions of the compounds were prepared in 100 μl volumes of culture medium in the wells of a 96-well culture plate. Sixty microliters of a suspension of Vero cells (3×10^5 cells/ml) were then dispensed into each well. HSV-1 (Tomioka strain) was diluted in medium to approximately 100 TCID50 /40 μl, as determined by prior titration in a similar dye uptake assay, and 40 μl of viral suspension were added to the respective wells. Control wells containing no test compound and no virus (cell control) or no cells (blank control) were included in each plate. After 3 days incubation at 37° C. in 5% CO2 atmosphere, 50 μl of neutral red dye (0.15% in saline, pH 5.5) was dispensed into each well and the cultures were incubated for a further 45 min at 37° C. Unincorporated dye was removed by rinsing with PBS. The dye incorporated by viable cells was then eluted into 100 μl per well of citrate ethanol buffer (pH 4.2; equal volumes of 0.1 M Sorensen citrate buffer and ethanol), and absorbance at 540 nm of the solution was measured. […] As a comparative compound, acyclovir was used.

in vitro = settings: african green monkey, vero cells
Experimental: as §1

[1] = test system: varicella zoster virus (Kawaguchi strain); experiment: Anti-viral activity against varicella zoster virus, plaque reduction assay in human embryonic lung (HEL) cells; settings: Human alphaherpesvirus 3, 72 h, 3 days, read-out: PI50 (50% plaque decrease concentration)
Experimental: The activity of test compounds against varicella zoster virus was measured by plaque reduction assay. Confluent monolayers of human embryonic lung (HEL) cells grown in 6-well plates were infected with varicella zoster virus (Kawaguchi strain) in such a way that each well might have 100 plaque-forming units. After incubated at 37 C. for one hour in 5% CO2 atmosphere, the inoculum was removed and 3 ml of maintenance media containing the test compound having a varying concentration was added thereto. The incubation was continued for 3 days. After incubation, the cells were fixed and stained, the number of plaques was counted microscopically. In comparison to the control, the 50% plaque decrease concentration (PI50) of the test compound was determined. As a comparative compound, acyclovir was used.

Row | Structure (SMILES) | EC50 (HSV-1 (Tomioka strain)) [µg/mL] | CC50 at 72 h (in vitro) [µg/mL] | IC50 [1] [µg/mL]
1 | O=c1[nH]c(=O)n(C[C@]2(CO)C[C@@H]2CO)cc1/C=C/Br (relative stereo) [Example 15, 1-[1'α,2'β-2-bis(hydroxymethyl)cyclopropanyl-yl]methyl-5-[(E)-2-bromoethenyl]-2,4(1H,3H)-pyrimidinedione] | 78 (≈ 236 µM) | > 500 | 87 (≈ 263 µM)
2 | O=c1[nH]c(=O)n(C[C@]2(CO)C[C@H]2CO)cc1F [Example 1, 1-[1'S,2'R-bis(hydroxymethyl)-cyclopropan-1'-yl]methyl-5-fluoro-2,4(1H,3H)pyrimidinedione] | > 500 | > 500 | > 100
3 | O=c1[nH]c(=O)n(C[C@]2(CO)C[C@H]2CO)cc1Cl [Example 2, 1-[1'S,2'R-bis(hydroxymethyl)-cyclopropan-1'-yl]methyl-5-chloro-2,4(1H,3H)-pyrimidinedione] | 295 (≈ 1130 µM) | > 500 | > 100
4 | O=c1[nH]c(=O)n(C[C@]2(CO)C[C@H]2CO)cc1Br [Example 3, 1-[1'S,2'R-bis(hydroxymethyl)-cyclopropan-1'-yl]methyl-5-bromo-2,4(1H,3H)-pyrimidinedione] | 215 (≈ 705 µM) | > 500 | 97 (≈ 318 µM)
5 | O=c1[nH]c(=O)n(C[C@]2(CO)C[C@H]2CO)cc1I [Example 4, 1-[1'S,2'R-bis(hydroxymethyl)-cyclopropan-1'-yl]methyl-5-iodo-2,4(1H,3H)-pyrimidinedione] | 90 (≈ 256 µM) | > 500 | 9.3 (≈ 26.4 µM)
6 | O=c1[nH]c(=O)n(C[C@]2(CO)C[C@H]2CO)cc1C(F)(F)F [Example 5, 1-[1'S,2'R-bis(hydroxymethyl)-cyclopropan-1'-yl]methyl-5-trifluoromethyl-2,4(1H,3H)-pyrimidinedione] | > 500 | 234 (≈ 795 µM) | > 100
7 | C=Cc1cn(C[C@]2(CO)C[C@H]2CO)c(=O)[nH]c1=O [Example 6, 1-[1'S,2'R-bis(hydroxymethyl)cyclopropan-1'-yl]methyl-5-ethenyl-2,4(1H,3H)-pyrimidinedione] | 3.2 (≈ 12.7 µM) | > 500 | 11.1 (≈ 44 µM)
8 | O=c1[nH]c(=O)n(C[C@]2(CO)C[C@H]2CO)cc1/C=C/Cl [Example 7, 1-[1'S, 2'R-bis(hydroxymethyl)-cyclopropan-1'-yl]methyl-5-[(E)-2-chloroethenyl]-2,4(1H,3H)-pyrimidinedione] | 4.3 (≈ 15 µM) | > 500 | 0.07 (≈ 0.244 µM)
9 | O=c1[nH]c(=O)n(C[C@]2(CO)C[C@H]2CO)cc1/C=C/Br [Example 8, 1-[1'S,2'R-bis(hydroxymethyl)-cyclopropan-1'-yl]methyl-5-[(E)-2-bromoethenyl]-2,4(1H,3H)-pyrimidinedione] | 14.5 (≈ 43.8 µM) | > 500 | 0.031 (≈ 0.0936 µM)
10 | O=c1[nH]c(=O)n(C[C@]2(CO)C[C@H]2CO)cc1/C=C/I [Example 10, 1-[1'S,2'R-bis(hydroxymethyl)-cyclopropan-1'-yl]methyl-5-[(E)-2-iodoethenyl]-2,4(1H,3H)-pyrimidinedione] | 24.6 (≈ 65.1 µM) | 330 (≈ 873 µM) | 0.054 (≈ 0.143 µM)
11 | C#Cc1cn(C[C@]2(CO)C[C@H]2CO)c(=O)[nH]c1=O [Example 11, 1-[1'S,2'R-bis(hydroxymethyl)-cyclopropan-1'-yl]methyl-5-ethynyl-2,4(1H,3H)-pyrimidinedione] | 310 (≈ 1240 µM) | > 500 | > 100
12 | CC#Cc1cn(C[C@]2(CO)C[C@H]2CO)c(=O)[nH]c1=O [Example 12, 1-[1'S,2'R-bis(hydroxymethyl)-cyclopropan-1'-yl]methyl-5-(1-propynyl)-2,4(1H,3H)-pyrimidinedione] | 325 (≈ 1230 µM) | > 500 | 19.8 (≈ 74.9 µM)
13 | CCc1cn(C[C@]2(CO)C[C@H]2CO)c(=O)[nH]c1=O [Example 13, 1-[1'S,2'R-bis(hydroxymethyl)-cyclopropan-1'-yl]methyl-5-ethyl-2,4(1H,3H)-pyrimidinedione] | 24.3 (≈ 95.6 µM) | > 500 | 95 (≈ 374 µM)
14 | O=c1[nH]c(=O)n(C[C@@]2(CO)C[C@@H]2CO)cc1/C=C/Br [Example 14, 1-[1'R,2'S-bis(hydroxymethyl)-cyclopropan-1'-yl]methyl-5-[(E)-2-bromoethenyl]-2,4(1H,3H)-pyrimidinedione] | > 500 | > 500 | 7.4 (≈ 22.3 µM)
15 | Nc1nc2c(ncn2COCCO)c(=O)[nH]1 [acyclovir, reference compound] | 0.8 (≈ 3.55 µM) | > 500 | –
